This assay has as its target T1, 11β-HSD1 (Homo sapiens, UniProt P28845).
T1 construct: detecting cortisol generated from cortisterone by human liver microsomes; from tissue; host or cells: human liver microsomes
The assay can be described thus: In vitro inhibition of 11β-HSD1, HTRF detection of cortisol generated from cortisone by human liver microsomes. The format is biochemical. Conditions: 11β-HSD IC50 (nM), 1 hour at 37° C., pH 6.0, NADPH 200 μM, cortisone 80 nM, inhibition relative to carbenoxolone signal. The essentials: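 Inhibition expressed against the carbenoxolone signal and fitted to IC50 curves. Readout: HTRF competition between microsomal cortisol and XL665-labelled cortisol for Eu-cryptate anti-cortisol antibody (typically 2 h), with emission ratio 665/615 calibrated to cortisol concentration.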

Molecules are shown by their SMILES.

T1 sequence (P28845 whole entry): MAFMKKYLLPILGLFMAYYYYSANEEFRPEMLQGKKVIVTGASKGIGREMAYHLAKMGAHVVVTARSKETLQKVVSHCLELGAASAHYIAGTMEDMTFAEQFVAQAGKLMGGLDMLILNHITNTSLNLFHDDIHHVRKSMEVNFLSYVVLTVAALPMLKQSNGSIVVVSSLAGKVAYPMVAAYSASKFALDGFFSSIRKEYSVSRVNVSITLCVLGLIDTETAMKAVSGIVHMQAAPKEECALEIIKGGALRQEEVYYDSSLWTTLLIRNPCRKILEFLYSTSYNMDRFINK

`CC1(C)[C@H]2Cc3ccccc3[C@]1(C)CCN2C(=O)c1cccc2ccccc12` [Example 284, Naphthalen-1-yl-[(2R,6S)-6,11,11-trimethyl-1,2,5,6-tetrahydro-4H-2,6-methano-benzo[d]azocin-3-yl]-methanone] showed a 50% inhibitory concentration (IC50) of 666 nM. In turn, `CC1(C)[C@H]2Cc3ccccc3[C@]1(C)CCN2C(=O)c1ccc2cn[nH]c2c1` [Example 285, (1H-Indazol-6-yl)-[(2R,6S)-6,11,11-trimethyl-1,2,5,6-tetrahydro-4H-2,6-methano-benzo[d]azocin-3-yl]-methanone] registered an IC50 of 150 nM. `CC1(C)[C@H]2Cc3ccccc3[C@]1(C)CCN2C(=O)c1ccc(N)cc1` [Example 286, (4-Amino-phenyl)-[(2R,6S)-6,11,11-trimethyl-1,2,5,6-tetrahydro-4H-2,6-methano-benzo[d]azocin-3-yl]-methanone]: inhibition was half-maximal at 47 nM (IC50). In turn, `CC1(C)[C@H]2Cc3ccccc3[C@]1(C)CCN2C(=O)c1ccc2c(c1)C(=O)CC2` [Example 288, 6-[(2R,6S)-6,11,11-Trimethyl-1,2,5,6-tetrahydro-4H-2,6-methano-benzo[d]azocine-3-carbonyl)-indan-1-one] displayed an IC50 of 901 nM. As for `C[C@@H]1[C@H]2Cc3ccc(-c4ccc(=O)n(C)c4)cc3[C@]1(C)CCN2C(=O)c1ccc2nc[nH]c2c1` [Example 289, 5-[(2R,6R,11S)-3-(3H-Benzoimidazole-5-carbonyl)-6,11-dimethyl-1,2,3,4,5,6-hexahydro-2,6-methano-benzo[d]azocin-8-yl]-1-methyl-1H-pyridin-2-one], 121 nM corresponded to half-maximal inhibition (IC50). Compound `C[C@@H]1[C@H]2Cc3ccc(-c4ccc(=O)n(C)n4)cc3[C@]1(C)CCN2C(=O)c1ccc2nc[nH]c2c1` [Example 290, 6-[(2R,6R,11S)-3-(3H-Benzoimidazole-5-carbonyl)-6,11-dimethyl-1,2,3,4,5,6-hexahydro-2,6-methano-benzo[d]azocin-8-yl]-2-methyl-2H-pyridazin-3-one] showed a 50% inhibitory concentration (IC50) of 72 nM.

`CC1(C)[C@H]2Cc3ccccc3[C@]1(C)CCN2C(=O)c1ccc2c(c1)C(O)CC2` (stereo partly drawn) [Example 291, (3-Hydroxy-indan-5-yl)-[(2R,6S)-6,11,11-trimethyl-1,2,5,6-tetrahydro-4H-2,6-methano-benzo[d]azocin-3-yl]-methanone] yielded a 50% inhibitory concentration (IC50) of 183 nM.

Turning to `CC1(O)CCc2ccc(C(=O)N3CC[C@@]4(C)c5ccccc5C[C@@H]3C4(C)C)cc21` (stereo partly drawn) [Example 292, (3-Hydroxy-3-methyl-indan-5-yl)-[(2R,6S)-6,11,11-trimethyl-1,2,5,6-tetrahydro-4H-2,6-methano-benzo[d]azocin-3-yl]-methanone], the half-inhibitory concentration (IC50) came to 502 nM. `CC1(C)[C@H]2Cc3ccccc3[C@]1(C)CCN2C(=O)c1ccc2[nH]ncc2c1` [Example 293, (1H-Indazol-5-yl)-[(2R,6S)-6,11,11-trimethyl-1,2,5,6-tetrahydro-4H-2,6-methano-benzo[d]azocin-3-yl]-methanone] had an IC50 of 27 nM.

For the compound `CC1(C)[C@H]2Cc3ccccc3[C@]1(C)CCN2C(=O)c1ccc(N)c(Cl)c1` [Example 295, (4-Amino-3-chloro-phenyl)-[(2R,6S)-6,11,11-trimethyl-1,2,5,6-tetrahydro-4H-2,6-methano-benzo[d]azocin-3-yl]-methanone], inhibition was half-maximal at 35 nM (IC50).

The compound `CC1(C)[C@H]2Cc3ccccc3[C@]1(C)CCN2C(=O)c1ccc(N)c(F)c1` [Example 296, (4-Amino-3-fluoro-phenyl)-[(2R,6S)-6,11,11-trimethyl-1,2,5,6-tetrahydro-4H-2,6-methano-benzo[d]azocin-3-yl]-methanone] gave a 50% inhibitory concentration (IC50) of 32 nM.

As for `CC1(C)[C@H]2Cc3ccccc3[C@]1(C)CCN2C(=O)c1cc(F)c(F)c(F)c1` [Example 297, (3,4,5-Trifluoro-phenyl)-[(2R,6S)-6,11,11-trimethyl-1,2,5,6-tetrahydro-4H-2,6-methano-benzo[d]azocin-3-yl]-methanone], the half-maximal inhibitory concentration (IC50) was found to be 895 nM. `CC1(C)[C@H]2Cc3ccccc3[C@]1(C)CCN2C(=O)c1ccc2c(c1)CC(=O)N2` [Example 298, 5-[(2R,6S)-6,11,11-Trimethyl-1,2,5,6-tetrahydro-4H-2,6-methano-benzo[d]azocine-3-carbonyl]-1,3-dihydro indol-2-one] registered an IC50 of 99 nM. Take `CC(=O)c1ccc(C(=O)N2CC[C@@]3(C)c4ccccc4C[C@@H]2C3(C)C)cc1` [Example 299]: the IC50 was 352 nM. In turn, `Cc1nc2c3c(ccc2o1)C[C@@H]1[C@@H](C)[C@@]3(C)CCN1C(=O)c1ccc2nc[nH]c2c1` [Example 300, (3H-Benzoimidazol-5-yl)-[(7R,11R,12S)-6,7,8,9,10,11-hexahydro-2,11,12-trimethyl-6,10-methano-oxazolo[4,5-h][3]benzazocin-8-yl]-methanone] yielded an IC50 of 115 nM.

On to `Cc1nc2cc3c(cc2o1)C[C@H]1N(C(=O)c2ccc4nc[nH]c4c2)CC[C@]3(C)C1(C)C` [Example 301, (3H-Benzoimidazol-5-yl)-[(6R,10S)-5,6,7,8,9,10-hexahydro-2,10,12,12-tetramethyl-6,10-methano-oxazolo[4,5-i][3]benzazocin-7-yl]-methanone], for which the IC50 was found to be 32 nM. In turn, `CC1(C)[C@H]2Cc3cc4oc(C5CC5)nc4cc3[C@]1(C)CCN2C(=O)c1ccc2nc[nH]c2c1` [Example 302, (3H-Benzoimidazol-5-yl)-[(6R,10S)-2-cyclopropyl-5,6,7,8,9,10-hexahydro-10,12,12-trimethyl-6,10-methano-oxazolo[4,5-i][3]benzazocin-7-yl]-methanone] yielded an IC50 of 35 nM. For the compound `CC1(C)[C@H]2Cc3ccccc3[C@]1(C)CCN2C(=O)c1ccc(O)nc1` [Example 303, (6-Hydroxy-pyridin-3-yl)-[(2R,6S)-6,11,11-trimethyl-1,2,5,6-tetrahydro-4H-2,6-methano-benzo[d]azocin-3-yl)-methanone], the concentration for half-maximal inhibition (IC50) amounted to 717 nM. With `CC1(C)[C@H]2Cc3ccccc3[C@]1(C)CCN2C(=O)c1ccc(N)nc1` [Example 304, (6-Amino-pyridin-3-yl)-[(2R,6S)-6,11,11-trimethyl-1,2,5,6-tetrahydro-4H-2,6-methano-benzo[d]azocin-3-yl)-methanone] the figure was 251 nM; with `Cc1nc2cc3c(cc2o1)[C@]1(C)CCN(C(=O)c2ccc4nc[nH]c4c2)[C@H](C3)[C@H]1C` [Example 305, (3H-Benzoimidazol-5-yl)-[(6R,10R,12S)-5,6,7,8,9,10-hexahydro-2,10,12-trimethyl-6,10-methano-oxazolo[5,4-i][3]benzazocin 7-yl]-methanone], 153 nM; with `CC(C)(O)c1ccc(C(=O)N2CC[C@@]3(C)c4ccccc4C[C@@H]2C3(C)C)cc1` [Example 306, [4-(1-Hydroxy-1-methyl-ethyl)-phenyl]-[(2R,6S)-6,11,11-trimethyl-1,2,5,6-tetrahydro-4H-2,6-methano-benzo[d]azocin-3-yl]-methanone], 978 nM. For the compound `CC(=O)c1cccc(C(=O)N2CC[C@@]3(C)c4ccccc4C[C@@H]2C3(C)C)c1` [Example 307, 1-{3-[(2R,6S)-6,11,11-Trimethyl-1,2,5,6-tetrahydro-4H-2,6-methano-benzo[d]azocine-3-carbonyl]-phenyl}-ethanone], the IC50 is 979 nM. In turn, `CC1(C)C(=O)Nc2ccc(C(=O)N3CC[C@@]4(C)c5ccccc5C[C@@H]3C4(C)C)cc21` [Example 308, 3,3-Dimethyl-5-[(2R,6S)-6,11,11-trimethyl-1,2,5,6-tetrahydro-4H-2,6-methano-benzo[d]azocine-3-carbonyl]-1,3-dihydro-indol-2-one] came in with an IC50 of 210 nM. As for `CC12CCN(C(=O)c3ccc4[nH]cnc4c3)C(Cc3cccc(-c4cccnc4)c31)C2(C)C` (centres unmarked) [Example 309, (1H-Benzoimidazol-5-yl)-(6,11,11-trimethyl-7-pyridin-3-yl-1,2,5,6-tetrahydro-4H-2,6-methano-benzo[d]azocin-3-yl)-methanone], half-maximal inhibition (IC50) required 184 nM. Compound `C[C@@H]1[C@H]2Cc3cc4nc(C5CC5)oc4cc3[C@]1(C)CCN2C(=O)c1ccc2nc[nH]c2c1` [Example 311, (3H-Benzoimidazol-5-yl)-[(6R,10R,12S)-2-cyclopropyl-5,6,7,8,9,10-hexahydro-10,12-dimethyl-6,10-methano-oxazolo[5,4-i][3]benzazocin-7-yl]-methanone] registered a half-inhibitory concentration (IC50) of 424 nM.

The compound `CC(C)(C)c1nc2cc3c(cc2o1)C[C@H]1N(C(=O)c2ccc4nc[nH]c4c2)CC[C@]3(C)C1(C)C` [Example 312, (3H-Benzoimidazol-5-yl)-[(6R,10S)-2-tert-butyl-5,6,7,8,9,10-hexahydro-10,12,12-trimethyl-6,10-methano-oxazolo[4,5-i][3]benzazocin-7-yl]-methanone] registered an IC50 of 103 nM. Consider `Cc1cnc(-c2nc3cc4c(cc3o2)C[C@H]2N(C(=O)c3ccc5nc[nH]c5c3)CC[C@]4(C)C2(C)C)cn1` [Example 313, (3H-Benzoimidazol-5-yl)-[(6R,10S)-5,6,7,8,9,10-hexahydro-10,12,12-trimethyl-2-(5-methyl-pyrazin-2-yl)-6,10-methano-oxazolo[4,5-i][3]benzazocin-7-yl]-methanone], for which the concentration for half-maximal inhibition (IC50) amounted to 61 nM. Turning to `CC(O)c1cccc(C(=O)N2CC[C@@]3(C)c4ccccc4C[C@@H]2C3(C)C)c1` (stereo partly drawn) [Example 314, [3-(1-Hydroxy-ethyl)-phenyl]-[(2R,6S)-6,11,11-trimethyl-1,2,5,6-tetrahydro-4H-2,6-methano-benzo[d]azocin-3-yl]-methanone], the IC50 was 162 nM. In turn, `Cc1ncc(-c2ccc3c(c2)[C@]2(C)CCN(C(=O)c4ccc5nc[nH]c5c4)[C@H](C3)[C@H]2C)cn1` [Example 315, (3H-Benzoimidazol-5-yl)-[(2R,6R,11S)-6,11-dimethyl-8-(2-methyl-pyrimidin-5-yl)-1,2,5,6-tetrahydro-4H-2,6-methano-benzo[d]azocin-3-yl]-methanone] came in with a 50% inhibitory concentration (IC50) of 61 nM.

(Values after patent US8859580B2 (Boehringer Ingelheim International GmbH, priority 2007, dated 2014).)
